Data: patent US20100266501A1, “METHODS AND COMPOSITIONS FOR ORGAN PROTECTION” (University Of Vermont and State Agricltural College, priority 2006, published 2010)
Read-outs that look alike come from different tables or passages of the source.

Tests used:
[1] = test system: pig model of myocardial ischemia and reperfusion; experiment: Ischemia-reperfusion model: periprocedural arrhythmias (VT, VF, DCCV); type: in vivo; settings: 200 ml contrast, NAC 11.3 mg/mL
Description: (§1) Sedation, anesthesia and instrumentation of the pigs were accomplished in accordance to the dose escalation study. All pigs received a bolus of 2000 units of heparin sulfate after obtaining femoral artery access. A guide wire (PT2, 0.014″×185 cm, Boston Scientific, Natick, Mass.) was then advanced into the left anterior descending (LAD) coronary artery followed by inflation of a balloon (Monorail Maverick, 2.5×15 mm, Boston Scientific) in its mid-portion, just distal to the second diagonal branch. Total occlusion was confirmed by contrast injections after increasing balloon pressures in 1 atm increments. Total occlusion time was 60 minutes. Throughout the experiment, the animals were monitored by continuous digital ECG recordings and guide catheter pressure recordings. Digital cineangiograpic recordings were obtained in straight anterioposterior projections.
Blood pressure, heart rate, and high-resolution ECG were continuously recorded beginning at the time of coronary occlusion and for 30 minutes following reperfusion. The occurrence of ventricular tachycardia during coronary occlusion or reperfusion (defined as more than 4 consecutive ventricular ectopic beats) and ventricular fibrillation were recorded. […] (DCCV) was provided for ventricular fibrillation and ventricular tachycardia with hemodynamic instability. No antiarrhythmic medications were used.

[2] = test system: pig model of myocardial ischemia and reperfusion; experiment: Ischemia-reperfusion model: infarct morphology (circumference/area index); type: in vivo; settings: for morphologic appearance of the infarcted area: TTC stained sections
Description: as §1, with “projections. In order to quantify visual differences in infarct morphology, a circumference/area index of the infarcted myocardium using TTC stained sections was calculated.” for “projections.”

[3] = test system: myocyte nuclei; experiment: Ischemia-reperfusion model: TUNEL assay for apoptosis in myocardium; type: in vivo, pig; settings: for nuclei stained positive for apoptosis (TUNEL): infarct tissue; for nuclei stained positive for apoptosis (TUNEL) / nuclei stained TUNEL positive: mean±SD; for nuclei stained TUNEL positive: non-infarcted area at risk
Description: Sedation, anesthesia and instrumentation of the pigs were accomplished in accordance to the dose escalation study. All pigs received a bolus of 2000 units of heparin sulfate after obtaining femoral artery access. A guide wire (PT2, 0.014″×185 cm, Boston Scientific, Natick, Mass.) was then advanced into the left anterior descending (LAD) coronary artery followed by inflation of a balloon (Monorail Maverick, 2.5×15 mm, Boston Scientific) in its mid-portion, just distal to the second diagonal branch. Total occlusion was confirmed by contrast injections after increasing balloon pressures in 1 atm increments. Total occlusion time was 60 minutes. Throughout the experiment, the animals were monitored by continuous digital ECG recordings and guide catheter pressure recordings. Digital cineangiograpic recordings were obtained in straight anterioposterior projections. TUNEL assays were performed on samples from […] area at risk and infarcted tissue to investigate if NAC reduces ischemia-reperfusion induced apoptosis. A total of four samples from two control animals and six samples from three NAC treated animals were analyzed. Tissue sections were deparaffinized and permeabilized with proteinase K (25 μg/ml in 100 mM Tris.HCl). An in situ apoptotic cell death detection kit (TMR red; Roche Applied Bio Sciences, Indianapolis, Ind.) based on the TUNEL assay was used to detect apoptotic cells. Sections were mounted with Vectashield mounting medium containing 4′,6-diamidino-2-phenylindole (DAPI; Vector Laboratories, Burlingame, Calif.) as a nuclear counterstain. Sections were examined with a Zeiss Axiovert 200 microscope and Zeiss LSM 510 META laser scanning confocal microscope. The percentage of apoptotic nuclei per section was calculated by counting the total number of TUNEL-staining nuclei divided by the total number of DAPI-positive nuclei in 10 randomly selected fields at ×40 magnification (14).

[4] = Ischemia-reperfusion model: serum creatinine; type: in vivo, pig; settings: for baseline creatinine level / creatinine level: serum, mean±SD; for baseline creatinine level: prior to contrast medium administration; for creatinine level: twenty four hours after ischemia-reperfusion, 200 ml contrast
Description: Sedation, anesthesia and instrumentation of the pigs were accomplished in accordance to the dose escalation study. All pigs received a bolus of 2000 units of heparin sulfate after obtaining femoral artery access. A guide wire (PT2, 0.014″×185 cm, Boston Scientific, Natick, Mass.) was then advanced into the left anterior descending (LAD) coronary artery followed by inflation of a balloon (Monorail Maverick, 2.5×15 mm, Boston Scientific) in its mid-portion, just distal to the second diagonal branch. Total occlusion was confirmed by contrast injections after increasing balloon pressures in 1 atm increments. […] Throughout the experiment, the animals were monitored by continuous digital ECG recordings and guide catheter pressure recordings. Digital cineangiograpic recordings were obtained in straight anterioposterior projections. A total of 200 ml of contrast medium was administered to each animal. Approximately half of the contrast volume was used during diagnostic angiography and insertion of the guidewire into the LAD. The remaining contrast was injected after deflation of the balloon during the reperfusion period. After 20-30 minutes of reperfusion, catheter, balloon and guide wire were withdrawn. An Angio-Seal 6-French femoral artery closure device (St. Jude Medical, St. Paul, Minn.) was deployed and the Isoflurane was discontinued. After 30 minutes the ECG recording was stopped and the animals were extubated and transferred to the animal housing facility. No animal was lost during the housing period. Serum was collected prior to contrast exposure and 24 hours after infarction and analyzed for creatinine. An attempt was also made to assay Cystatin C as a second renal marker. However, Cystatin C was undetectable in pig serum.

[5] = test system: pig model of myocardial ischemia and reperfusion; experiment: Ischemia-reperfusion model: area at risk and infarct size (Evans Blue / TTC staining); type: in vivo; settings: for area at risk as a percentage of ventricular myocardium / infarct size as a percentage of the area at risk / infarct size as percent of ventricular myocardium (TTC staining): 60 min LAD occlusion, 24 h reperfusion, 200 ml contrast, NAC 11.3 mg/mL, n=5, mean±SD
Description: Sedation, anesthesia and instrumentation of the pigs were accomplished in accordance to the dose escalation study. All pigs received a bolus of 2000 units of heparin sulfate after obtaining femoral artery access. A guide wire (PT2, 0.014″×185 cm, Boston Scientific, Natick, Mass.) was then advanced into the left anterior descending (LAD) coronary artery followed by inflation of a balloon (Monorail Maverick, 2.5×15 mm, Boston Scientific) in its mid-portion, just distal to the second diagonal branch. Total occlusion was confirmed by contrast injections after increasing balloon pressures in 1 atm increments. Total occlusion time was 60 minutes. Throughout the experiment, the animals were monitored by continuous digital ECG recordings and guide catheter pressure recordings. Digital cineangiograpic recordings were obtained in straight anterioposterior projections. A total of 200 ml of contrast medium was administered to each animal. Approximately half of the contrast volume was used during diagnostic angiography and insertion of the guidewire into the LAD. The remaining contrast was injected after deflation of the balloon during the reperfusion period. After 20-30 minutes of reperfusion, catheter, balloon and guide wire were withdrawn. An Angio-Seal 6-French femoral artery closure device (St. Jude Medical, St. Paul, Minn.) was deployed and the Isoflurane was discontinued. After 30 minutes the ECG recording was stopped and the animals were extubated and transferred to the animal housing facility. No animal was lost during the housing period. Twenty four hours later the animals were sedated and intubated. The thoracic cavity was opened by a midline sternotomy and ligatures were placed at the site of the proximal balloon occlusion, the aortic arch branches and the descending aorta. The right carotid artery was cannulated and a plastic catheter advanced into the aortic root. […] The vessels were occluded in the following order: LAD, aortic arch branches and descending aorta. The dye was then injected at a perfusion pressure of 120 mmHg until the myocardium was stained. […] In the NAC group two animals could not be used for the myocardial infarction analysis (insufficient Evans Blue staining, unsuccessful electrical cardioversion). Evans Blue stained hearts were harvested and the atria were removed. The ventricles were sliced into one centimeter slices in a bread loaf fashion, with the first slice at the apex. At least five slices could be obtained in all hearts. The basal surfaces of the slices were sequentially imaged. Small samples of myocardium from areas of necrosis, area at risk and normal left ventricular myocardium were obtained from the apical side of the second and third slice and stored for additional analyses. […] The basal surfaces were then re-imaged. Area analysis (planimetry) was performed with the NIH-Image program (Scion Image Version 4.0.2). The size of the area at risk and infarct size for each slice was determined by multiplying the mass of the slice by the fraction of area at risk or by the fraction of area of infarction. Total infarct size and the area at risk size were expressed as a percentage of biventricular mass to account for the anterior right ventricular infarction.

[6] = Intracoronary NAC dose escalation: ECG (QT interval, arrhythmias, heart rate)
Description: Accordingly, the effects of escalating doses of intracoronary NAC (Cumberland Pharmaceuticals, Nashville, Tenn.) mixed with contrast medium on blood pressure and cardiac rhythm were tested in two healthy farm raised pigs (23 and 26 kg).
The pigs were anesthetized with Isoflurane after intramuscular pre-medication with Ketamine (20 mg/kg). After endotracheal intubation they were ventilated (Harvard Apparatus, Holliston, Mass.) with a mixture of oxygen and 1-3 percent isoflurane. A surgical level of anesthesia was confirmed prior to obtaining percutaneous femoral arterial access using a 6-French sheath. A JR 4 or HS guide catheter was inserted and placed at the ostium of the left main coronary artery. Continuous twelve-lead ECG and catheter based pressures were digitally recorded with the administration of bolus injections of NAC. The initial dose was 56.6 mg of NAC diluted in 5 mL of. Iopamidol (Isovue 370®, Bracco Pharmaceuticals, Princeton, N.J.). This dose of 11.3 mg NAC/mL is referred to as the target dose because it would deliver a dose of 1850 milligrams of NAC to an average patient undergoing a percutaneous coronary intervention. […] Following at least five injections of the target dose, a total of four high dose injections were performed, two of 250 mg per 5 mL bolus and two of 500 mg NAC per 5 mL bolus (equal to 4.4× and 8.8× target dose). […] Blood pressure and QT interval were analyzed at the end of three succeeding respiratory cycles (6, 12 and 18 seconds after injection) and are reported as a mean percent change from baseline.
In the dose escalation study the effect of each injection on blood pressure and QT interval was expressed as a percentage change from the immediately preceding baseline and analyzed by a paired student's t-test. A p-value of less than 0.05 was accepted as statistically significant.

[7] = 250 mg NAC per 5 mL bolus, six seconds
[8] = 500 mg NAC per 5 mL bolus, six seconds
[9] = 5 ml contrast with target dose NAC 11.3 mg/mL, 6 seconds after injection
[10] = target dose NAC 11.3 mg/mL, 18 seconds after injection

## C[C@H](O)C(=O)Nc1c(I)c(C(=O)NC(CO)CO)c(I)c(C(=O)NC(CO)CO)c1I [Iopamidol]
[1]
  ventricular arrhythmias during ischemia-reperfusion: none of the control ischemia-reperfusion animals developed ventricular fibrillation or required DCCV
[2]
  morphologic appearance of the infarcted area: homogeneous with discrete borders
[3]
  nuclei stained positive for apoptosis (TUNEL): 35.8±5.7%
  nuclei stained TUNEL positive: 32.1±4.0%
[4]; 200 ml of contrast without periprocedural hydration, 24 h
  increase in creatinine levels: 37%
[4]
  baseline creatinine level: 1.32 ± 0.26 mg/dL
  creatinine level: 1.82 ± 0.24 mg/dL
Contrast only, intracoronary injection
  blood pressure effects of control injections: did not show such effects
[5]
  area at risk as a percentage of ventricular myocardium: 15.1±4.8%
  infarct size as a percentage of the area at risk: 92.4±6.3%
  infarct size as percent of ventricular myocardium (TTC staining): 13.9±4.5%
[6]; contrast injections without NAC
  QT changes: No significant QT changes

## CC(=O)N[C@@H](CS)C(=O)O [NAC, N-acetylcysteine]
[1]
  ventricular arrhythmias during ischemia-reperfusion: developed ventricular tachycardia, fibrillation or both
[2]
  morphologic appearance of the infarcted area: mottled appearance
[2]; compared with control animals
  ratio of infarct circumference to infarct area: greater
[3]
  nuclei stained positive for apoptosis (TUNEL): 33.0±3.7%
  nuclei stained TUNEL positive: 1.6±1.6%
[3]; non-ischemic myocardium (non-LAD territories), NAC treated vs control
  TUNEL positive myocyte nuclei: without a significant difference
[4]; NAC provided during contrast administration vs contrast-only
  reduction of the rise in post procedure creatinine levels: about 60%
[4]
  baseline creatinine level: 1.29 ± 0.15 mg/dL
  creatinine level: 1.49 ± 0.06 mg/dL
[7]
  reduction of diastolic blood pressure: 26%
  reduction of systolic blood pressure: 14%
250 mg and 500 mg bolus
  time to recovery of diastolic pressures: 45 to 60 s
250 mg and 500 mg bolus, after 18 seconds
  systolic blood pressure: normalized
[8]
  reduction of diastolic blood pressure: 43%
  reduction of systolic blood pressure: 48%
[9]
  reduction in diastolic blood pressure: 17%
  reduction of systolic blood pressure: 5%
Target dose NAC 11.3 mg/mL
  time to complete normalization of blood pressure: 45 to 60 s
[10]
  decrease in diastolic pressure: about 7%
  systolic pressure: returned to pre-injection pressures
[5]
  area at risk as a percentage of ventricular myocardium: 18.4±1.8%
  infarct size as a percentage of the area at risk: 44.7±12.4%
  infarct size as percent of ventricular myocardium (TTC staining): 8.2±2.3%
[5]; NAC-contrast vs contrast-only
  reduction in infarct size: approximately 50%
[6]; 250 mg NAC bolus, 18 seconds
  QT interval prolongation: normalized
[6]; 250 mg NAC bolus, immediately after injection
  QT interval prolongation: 16%
[6]; 500 mg NAC bolus
  time to complete recovery of QT interval to baseline: 45 to 60 s
[6]; 500 mg NAC bolus, 18 seconds
  QT interval prolongation: 9%
[6]; 500 mg NAC bolus, immediately after injection
  QT interval prolongation: 35%
[6]; healthy pigs, intracoronary bolus injections
  arrhythmias or changes in heart rate after injections of contrast containing NAC: did not cause any arrhythmias or changes in heart rate
[6]; target dose 11.3 mg/mL, eighteen seconds after injection
  QT interval prolongation: significant QT prolongation was no longer present
[6]; target dose 11.3 mg/mL, six seconds after injection
  QT interval prolongation: 10%
